Laboratory results: ChEMBL document CHEMBL1201862, “PubChem BioAssay data set” (2004)
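Grown in 96-well plates, cells were treated for 48 hours with each compound at five concentrations. Insufficient inhibition: endpoint recorded as highest concentration tested. GI50: concentration for 50% inhibition of growth.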 Calls of active or inactive are those of the source. No stated cut-off is given here; in the data, active = GI50 up to about 1.1 µM and inactive = higher.

Key:
Assay in all cases: NCI-60 cell line screen, 48 h
HCC 2998 = test system: HCC 2998
HCT-116 = test system: HCT-116
PC-3 = test system: PC-3
HL-60 = test system: HL-60
K562 = test system: K562
NCI-H460 = test system: NCI-H460
Hs-578T = test system: Hs-578T
SK-MEL-28 = test system: SK-MEL-28
MDA-MB-435 = test system: MDA-MB-435
EKVX = test system: EKVX
NCI/ADR-RES = test system: NCI/ADR-RES
SK-OV-3 = test system: SK-OV-3
M14 = test system: M14
MCF7 = test system: MCF7
HCT-15 = test system: HCT-15
LOX IMVI = test system: LOX IMVI
SN12C = test system: SN12C
SW-620 = test system: SW-620
RPMI-8226 = test system: RPMI-8226
NCI-H522 = test system: NCI-H522

With `O=C1Nc2c(Cl)cc(Cl)cc2/C1=N/NC(=O)c1ccncc1` the GI50 (HCC 2998) was 44.1 µM (inactive), the GI50 (HCT-116) was 19.1 µM (inactive) and the GI50 (PC-3) was 15.7 µM (inactive). The GI50 (HL-60) was 9.64 µM (inactive), the GI50 (K562) was 27.9 µM (inactive) and the GI50 (NCI-H460) was 46.7 µM (inactive). For the same molecule, the GI50 (Hs-578T) was 40.6 µM (inactive), the GI50 (SK-MEL-28) was 22.6 µM (inactive) and the GI50 (MDA-MB-435) was 16.5 µM (inactive). The GI50 (EKVX) was 28.5 µM (inactive), the GI50 (NCI/ADR-RES) was 23.1 µM (inactive) and the GI50 (SK-OV-3) was 25.6 µM (inactive). For the same molecule, the GI50 (M14) was 46.2 µM (inactive), the GI50 (MCF7) was 32.9 µM (inactive) and the GI50 (HCT-15) was 32.1 µM. The GI50 (LOX IMVI) was 16.9 µM (inactive), the GI50 (SN12C) was 26.2 µM (inactive) and the GI50 (SW-620) was 28.4 µM (inactive).
For `CCOC(=O)N(C)C(=C(F)F)C(F)(F)F`, the GI50 (HCC 2998) was 20.6 µM (inactive), the GI50 (HCT-116) was 20.4 µM (inactive) and the GI50 (PC-3) was 30.9 µM (inactive). The GI50 (RPMI-8226) was 16.4 µM (inactive), the GI50 (HL-60) was 20.4 µM (inactive) and the GI50 (K562) was 22.1 µM (inactive). For the same molecule, the GI50 (NCI-H460) was 28.6 µM (inactive), the GI50 (Hs-578T) was 30.4 µM (inactive) and the GI50 (SK-MEL-28) was 20 µM (inactive). The GI50 (MDA-MB-435) was 22.8 µM (inactive), the GI50 (EKVX) was 27.6 µM (inactive) and the GI50 (NCI/ADR-RES) was 34.6 µM (inactive). The GI50 (SK-OV-3) was 36 µM (inactive), the GI50 (M14) was 16.8 µM (inactive) and the GI50 (MCF7) was 36.6 µM (inactive). The GI50 (HCT-15) was 16.3 µM, the GI50 (LOX IMVI) was 23 µM (inactive) and the GI50 (SN12C) was > 10 µM (inactive). The GI50 (SW-620) was 21.2 µM (inactive).
For `CCN1C(NCCO)=NS(=O)(=O)c2ccccc21`, the GI50 (HCC 2998) was > 100 µM (inactive), the GI50 (HCT-116) was > 100 µM (inactive) and the GI50 (PC-3) was > 100 µM (inactive). For the same molecule, the GI50 (HL-60) was > 100 µM (inactive), the GI50 (K562) was > 100 µM (inactive) and the GI50 (NCI-H460) was > 100 µM (inactive). The GI50 (Hs-578T) was > 100 µM (inactive), the GI50 (SK-MEL-28) was > 100 µM (inactive) and the GI50 (MDA-MB-435) was > 100 µM (inactive). The GI50 (EKVX) was > 100 µM (inactive), the GI50 (NCI/ADR-RES) was > 100 µM (inactive) and the GI50 (SK-OV-3) was > 100 µM (inactive). For the same molecule, the GI50 (NCI-H522) was > 100 µM (inactive), the GI50 (M14) was > 100 µM (inactive) and the GI50 (MCF7) was > 100 µM (inactive). The GI50 (HCT-15) was greater than 100 µM, the GI50 (LOX IMVI) was > 100 µM (inactive) and the GI50 (SN12C) was > 100 µM (inactive). For the same molecule, the GI50 (SW-620) was > 100 µM (inactive).
For `N#C/C(N)=C(\C#N)NC(=O)C(=O)N/C(C#N)=C(\N)C#N`, the GI50 (HCC 2998) was > 100 µM (inactive), the GI50 (HCT-116) was > 100 µM (inactive) and the GI50 (PC-3) was > 100 µM (inactive). For the same molecule, the GI50 (RPMI-8226) was > 100 µM (inactive), the GI50 (K562) was > 100 µM (inactive) and the GI50 (NCI-H460) was > 100 µM (inactive). The GI50 (Hs-578T) was > 100 µM (inactive), the GI50 (SK-MEL-28) was > 100 µM (inactive) and the GI50 (MDA-MB-435) was > 100 µM (inactive). For the same molecule, the GI50 (EKVX) was > 100 µM (inactive), the GI50 (NCI/ADR-RES) was > 100 µM (inactive) and the GI50 (NCI-H522) was > 100 µM (inactive). The GI50 (M14) was > 100 µM (inactive), the GI50 (MCF7) was > 100 µM (inactive) and the GI50 (HCT-15) was greater than 100 µM. The GI50 (LOX IMVI) was > 100 µM (inactive), the GI50 (SN12C) was > 100 µM (inactive) and the GI50 (SW-620) was > 100 µM (inactive).
For `Cc1cc(C)nc(NC(=S)Nc2ccc(Cl)cc2)c1`, the GI50 (HCT-116) was > 100 µM (inactive), the GI50 (PC-3) was > 100 µM (inactive) and the GI50 (RPMI-8226) was > 100 µM (inactive). The GI50 (HL-60) was > 100 µM (inactive), the GI50 (K562) was > 100 µM (inactive) and the GI50 (NCI-H460) was 66.7 µM (inactive). For the same molecule, the GI50 (Hs-578T) was 21.5 µM (inactive), the GI50 (SK-MEL-28) was > 100 µM (inactive) and the GI50 (MDA-MB-435) was > 100 µM (inactive). The GI50 (EKVX) was 17.4 µM (inactive), the GI50 (NCI/ADR-RES) was 29.2 µM (inactive) and the GI50 (SK-OV-3) was 23.4 µM (inactive). For the same molecule, the GI50 (NCI-H522) was 1.37 µM (inactive), the GI50 (M14) was > 100 µM (inactive) and the GI50 (MCF7) was > 100 µM (inactive). The GI50 (HCT-15) was greater than 100 µM, the GI50 (LOX IMVI) was > 100 µM (inactive) and the GI50 (SN12C) was > 100 µM (inactive). For the same molecule, the GI50 (SW-620) was > 100 µM (inactive).
For `CC(C)(C)OC(=O)Cn1ncn(NC(=O)Cc2ccccc2)c1=O`, the GI50 (HCC 2998) was > 10 µM (inactive), the GI50 (HCT-116) was > 10 µM (inactive) and the GI50 (PC-3) was > 10 µM (inactive). For the same molecule, the GI50 (K562) was > 10 µM (inactive), the GI50 (NCI-H460) was > 10 µM (inactive) and the GI50 (Hs-578T) was > 10 µM (inactive). The GI50 (SK-MEL-28) was > 10 µM (inactive), the GI50 (MDA-MB-435) was > 10 µM (inactive) and the GI50 (EKVX) was > 10 µM (inactive). The GI50 (NCI/ADR-RES) was > 10 µM (inactive), the GI50 (SK-OV-3) was > 10 µM (inactive) and the GI50 (NCI-H522) was > 10 µM (inactive). The GI50 (M14) was > 10 µM (inactive), the GI50 (MCF7) was > 10 µM (inactive) and the GI50 (HCT-15) was greater than 10 µM. The GI50 (LOX IMVI) was > 10 µM (inactive), the GI50 (SN12C) was > 10 µM (inactive) and the GI50 (SW-620) was > 10 µM (inactive).
`CC(=O)N[C@@H](Cc1ccc(O)cn1)C(=O)NC1CCCCC1` was tested, and the GI50 (HCC 2998) was > 100 µM (inactive), the GI50 (HCT-116) was > 100 µM (inactive) and the GI50 (PC-3) was > 100 µM (inactive). For the same molecule, the GI50 (RPMI-8226) was > 100 µM (inactive), the GI50 (K562) was > 100 µM (inactive) and the GI50 (Hs-578T) was > 100 µM (inactive). The GI50 (SK-MEL-28) was > 100 µM (inactive), the GI50 (MDA-MB-435) was > 100 µM (inactive) and the GI50 (EKVX) was > 100 µM (inactive). For the same molecule, the GI50 (NCI/ADR-RES) was > 100 µM (inactive), the GI50 (SK-OV-3) was > 100 µM (inactive) and the GI50 (NCI-H522) was 30.3 µM (inactive). The GI50 (M14) was > 100 µM (inactive), the GI50 (MCF7) was > 100 µM (inactive) and the GI50 (HCT-15) was greater than 100 µM. For the same molecule, the GI50 (LOX IMVI) was > 100 µM (inactive), the GI50 (SN12C) was > 100 µM (inactive) and the GI50 (SW-620) was > 100 µM (inactive).
`Nc1nc(N)c(C2=CCNCC2)c(=O)[nH]1` was tested, and the GI50 (HCT-116) was > 100 µM (inactive), the GI50 (PC-3) was > 100 µM (inactive) and the GI50 (RPMI-8226) was > 100 µM (inactive). For the same molecule, the GI50 (HL-60) was > 100 µM (inactive), the GI50 (K562) was > 100 µM (inactive) and the GI50 (NCI-H460) was > 100 µM (inactive). The GI50 (Hs-578T) was > 100 µM (inactive), the GI50 (SK-MEL-28) was > 100 µM (inactive) and the GI50 (MDA-MB-435) was > 100 µM (inactive). For the same molecule, the GI50 (EKVX) was > 100 µM (inactive), the GI50 (NCI/ADR-RES) was > 100 µM (inactive) and the GI50 (SK-OV-3) was > 100 µM (inactive). For the same molecule, the GI50 (NCI-H522) was > 100 µM (inactive), the GI50 (M14) was > 100 µM (inactive) and the GI50 (MCF7) was > 100 µM (inactive). For the same molecule, the GI50 (HCT-15) was greater than 100 µM, the GI50 (SN12C) was > 100 µM (inactive) and the GI50 (SW-620) was > 100 µM (inactive).
